Measured values taken from ChEMBL document CHEMBL1132382 (J Med Chem, 1999).
Converted amounts (≈) assume the structure as drawn.

Tests used:
Oryctolagus cuniculus [1] = species on record: Oryctolagus cuniculus; assay: The compound was evaluated for fall in intraocular pressure (IOP) of Normotensive rabbits after treatment with one drop (50 microL) of a 2% solution at 0 min (pH 6.4); type: functional, Eye
Carbonic anhydrase 1 = Carbonic anhydrase 1 (Homo sapiens, UniProt P00915)
Description: Inhibitory activity against human recombinant carbonic anhydrase I (CA1)

Oryctolagus cuniculus [2] = species on record: Oryctolagus cuniculus; assay: The compound was evaluated for fall in intraocular pressure (IOP) of Normotensive rabbits after treatment with one drop (50 microL) of a 2% solution at 30 min (pH 6.4); type: functional, Eye
Oryctolagus cuniculus [3] = species on record: Oryctolagus cuniculus; assay: The compound was evaluated for fall in intraocular pressure (IOP) of Normotensive rabbits after treatment with one drop (50 microL) of a 2% solution at 90 min (pH 6.4); type: functional, Eye
[4] = octanol/water
Description: Partition coefficient (logD) (chloroform/buffer)

[5] = not given; remark: listed apart in the source
Oryctolagus cuniculus [6] = species on record: Oryctolagus cuniculus; assay: The compound was evaluated for fall in intraocular pressure (IOP) of Normotensive rabbits after treatment with one drop (50 microL) of a 2% solution at 60 min (pH 6.4); type: functional, Eye
Carbonic anhydrase 4 = target: T1, Carbonic anhydrase 4 (Bos taurus, UniProt Q95323)
T1 sequence (Q95323 whole entry): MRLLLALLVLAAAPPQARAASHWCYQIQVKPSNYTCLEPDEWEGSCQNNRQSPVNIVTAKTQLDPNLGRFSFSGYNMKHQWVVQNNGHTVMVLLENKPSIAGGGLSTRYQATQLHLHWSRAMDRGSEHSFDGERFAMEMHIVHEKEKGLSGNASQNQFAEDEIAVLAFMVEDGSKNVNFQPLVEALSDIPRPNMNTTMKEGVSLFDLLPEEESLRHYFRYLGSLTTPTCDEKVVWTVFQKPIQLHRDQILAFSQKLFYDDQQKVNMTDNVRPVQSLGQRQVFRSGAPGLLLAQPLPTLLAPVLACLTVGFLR
Description: Inhibitory activity against bovine carbonic anhydrase IV (CA4), isolated from bovine lung microsomes

physchem = conditions: buffer, pH 7.4
Oryctolagus cuniculus [7] = species on record: Oryctolagus cuniculus; assay: The compound was evaluated for fall in intraocular pressure (IOP) of Normotensive rabbits after treatment with one drop (50 microL) of a 2% solution at 30 min (pH 5.5); type: functional, Eye
Oryctolagus cuniculus [8] = species on record: Oryctolagus cuniculus; assay: The compound was evaluated for fall in intraocular pressure (IOP) of Normotensive rabbits after treatment with one drop (50 microL) of a 2% solution at 0 min (pH 5.5); type: functional, Eye
Oryctolagus cuniculus [9] = species on record: Oryctolagus cuniculus; assay: The compound was evaluated for fall in intraocular pressure (IOP) of Normotensive rabbits after treatment with one drop (50 microL) of a 2% solution at 90 min (pH 5.5); type: functional, Eye
Oryctolagus cuniculus [10] = species on record: Oryctolagus cuniculus; assay: The compound was evaluated for fall in intraocular pressure (IOP) of Normotensive rabbits after treatment with one drop (50 microL) of a 2% solution at 60 min (pH 5.5); type: functional, Eye
Oryctolagus cuniculus [11] = species on record: Oryctolagus cuniculus; assay: The compound was evaluated for fall in intraocular pressure (IOP) of Normotensive rabbits after treatment with one drop (50 microL) of a 2% solution at 0 min (pH 6.5); type: functional, Eye
Oryctolagus cuniculus [12] = species on record: Oryctolagus cuniculus; assay: The compound was evaluated for fall in intraocular pressure (IOP) of Normotensive rabbits after treatment with one drop (50 microL) of a 2% solution at 90 min (pH 6.5); type: functional, Eye
Oryctolagus cuniculus [13] = species on record: Oryctolagus cuniculus; assay: The compound was evaluated for fall in intraocular pressure (IOP) of Normotensive rabbits after treatment with one drop (50 microL) of a 2% solution at 30 min (pH 6.5); type: functional, Eye
Oryctolagus cuniculus [14] = species on record: Oryctolagus cuniculus; assay: The compound was evaluated for fall in intraocular pressure (IOP) of Normotensive rabbits after treatment with one drop (50 microL) of a 2% solution at 60 min (pH 6.5); type: functional, Eye
Oryctolagus cuniculus [15] = species on record: Oryctolagus cuniculus; assay: The compound was evaluated for fall in intraocular pressure (IOP) of Normotensive rabbits after treatment with one drop (50 microL) of a 2% solution at 60 min (pH 7.5); type: functional, Eye
Oryctolagus cuniculus [16] = species on record: Oryctolagus cuniculus; assay: The compound was evaluated for fall in intraocular pressure (IOP) of Normotensive rabbits after treatment with one drop (50 microL) of a 2% solution at 30 min (pH 7.5); type: functional, Eye
Oryctolagus cuniculus [17] = species on record: Oryctolagus cuniculus; assay: The compound was evaluated for fall in intraocular pressure (IOP) of glaucomatous rabbits after treatment with one drop (50 microL) of a 2% solution at 90 min (pH 7.5); type: functional, Eye
Oryctolagus cuniculus [18] = species on record: Oryctolagus cuniculus; assay: The compound was evaluated for fall in intraocular pressure (IOP) of Normotensive rabbits after treatment with one drop (50 microL) of a 2% solution at 0 min (pH 7.5); type: functional, Eye
Oryctolagus cuniculus [19] = species on record: Oryctolagus cuniculus; assay: The compound was evaluated for fall in intraocular pressure (IOP) of glaucomatous rabbits after treatment with one drop (50 microL) of a 2% solution at 30 min (pH 7.5); type: functional, Eye
Oryctolagus cuniculus [20] = species on record: Oryctolagus cuniculus; assay: The compound was evaluated for fall in intraocular pressure (IOP) of glaucomatous rabbits after treatment with one drop (50 microL) of a 2% solution at 60 min (pH 7.5); type: functional, Eye
Oryctolagus cuniculus [21] = species on record: Oryctolagus cuniculus; assay: The compound was evaluated for fall in intraocular pressure (IOP) of Normotensive rabbits after treatment with one drop (50 microL) of a 2% solution at 60 min (pH 7.0); type: functional, Eye
Oryctolagus cuniculus [22] = species on record: Oryctolagus cuniculus; assay: The compound was evaluated for fall in intraocular pressure (IOP) of Normotensive rabbits after treatment with one drop (50 microL) of a 2% solution at 90 min (pH 7.0); type: functional, Eye
Oryctolagus cuniculus [23] = species on record: Oryctolagus cuniculus; assay: The compound was evaluated for fall in intraocular pressure (IOP) of Normotensive rabbits after treatment with one drop (50 microL) of a 2% solution at 30 min (pH 7.0); type: functional, Eye
Oryctolagus cuniculus [24] = species on record: Oryctolagus cuniculus; assay: The compound was evaluated for fall in intraocular pressure (IOP) of Normotensive rabbits after treatment with one drop (50 microL) of a 2% solution at 0 min (pH 7.0); type: functional, Eye
Oryctolagus cuniculus [25] = species on record: Oryctolagus cuniculus; assay: The compound was evaluated for fall in intraocular pressure (IOP) of Normotensive rabbits after treatment with one drop (50 microL) of a 2% solution at 0 min (pH 5.6); type: functional, Eye
Oryctolagus cuniculus [26] = species on record: Oryctolagus cuniculus; assay: The compound was evaluated for fall in intraocular pressure (IOP) of Normotensive rabbits after treatment with one drop (50 microL) of a 2% solution at 30 min (pH 5.6); type: functional, Eye
Oryctolagus cuniculus [27] = species on record: Oryctolagus cuniculus; assay: The compound was evaluated for fall in intraocular pressure (IOP) of Normotensive rabbits after treatment with one drop (50 microL) of a 2% solution at 60 min (pH 5.6); type: functional, Eye
Oryctolagus cuniculus [28] = species on record: Oryctolagus cuniculus; assay: The compound was evaluated for fall in intraocular pressure (IOP) of Normotensive rabbits after treatment with one drop (50 microL) of a 2% solution at 90 min (pH 5.6); type: functional, Eye

Carbonic anhydrase 1, sequence (P00915 whole entry): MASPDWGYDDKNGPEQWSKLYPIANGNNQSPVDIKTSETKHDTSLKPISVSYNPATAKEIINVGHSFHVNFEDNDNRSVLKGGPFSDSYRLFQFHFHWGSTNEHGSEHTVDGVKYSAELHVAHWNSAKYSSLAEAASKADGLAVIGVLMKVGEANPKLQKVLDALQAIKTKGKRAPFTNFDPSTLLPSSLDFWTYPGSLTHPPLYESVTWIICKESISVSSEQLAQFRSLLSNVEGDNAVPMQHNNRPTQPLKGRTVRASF

Compound | Ki (Carbonic anhydrase 1) [µM] | kin [h⁻¹] | logD [4] | kin [5] [h⁻¹] | Ki (Carbonic anhydrase 4) [µM] | solubility (physchem) [mM] | Change in IOP (Oryctolagus cuniculus [1]) [mmHg] | Change in IOP (Oryctolagus cuniculus [2]) [mmHg] | Change in IOP (Oryctolagus cuniculus [3]) [mmHg] | Change in IOP (Oryctolagus cuniculus [6]) [mmHg] | other results
NCC(=O)NCC(=O)NS(=O)(=O)c1nc2ccc(OCCO)cc2s1 | 0.009 | 6.4 | 1.85 | 3.1 | 0.018 | 50 (≈ 19.4 mg/mL) | 0 | 3.3 | 5.4 | 7 | 
CCN(C(=O)CN(C)C(=N)N)C1CC(C)S(=O)(=O)c2sc(S(N)(=O)=O)cc21 (configuration not stated) | 0.075 |  |  |  | 0.027 |  | 0 | 5 | 7.6 | 9.1 | 
CCN(C(=O)CNC(=O)CN)C1CC(C)S(=O)(=O)c2sc(S(N)(=O)=O)cc21 (configuration not stated) | 0.09 |  |  |  | 0.031 |  | 0 | 4.9 | 6.9 | 8.7 | 
CN(CC(=O)NCCC(=O)Nc1nnc(S(N)(=O)=O)s1)C(=N)N | 0.021 | 8.5 | 1.944 | 4.7 | 0.008 | 75 (≈ 27.3 mg/mL) |  |  |  |  | Change in IOP (Oryctolagus cuniculus [15]): 9.8 mmHg; Change in IOP (Oryctolagus cuniculus [16]): 10.7 mmHg; Change in IOP (Oryctolagus cuniculus [17]): 14.3 mmHg; Change in IOP (Oryctolagus cuniculus [18]): 6.6 mmHg; Change in IOP (Oryctolagus cuniculus [19]): 8.6 mmHg; Change in IOP (Oryctolagus cuniculus [20]): 14.2 mmHg
CN(CC(=O)/N=c1/sc(S(N)(=O)=O)nn1C)C(=N)N | 0.19 |  |  |  | 0.041 |  |  |  |  |  | Change in IOP (Oryctolagus cuniculus [21]): 9.2 mmHg; Change in IOP (Oryctolagus cuniculus [22]): 9 mmHg; Change in IOP (Oryctolagus cuniculus [23]): 5.5 mmHg; Change in IOP (Oryctolagus cuniculus [24]): 0 mmHg

More lines, in order of falling Ki (Carbonic anhydrase 1), values ahead:

Ki (Carbonic anhydrase 1) [µM] | kin [h⁻¹] | logD [4] | kin [5] [h⁻¹] | Ki (Carbonic anhydrase 4) [µM] | solubility (physchem) [mM] | Compound | Change in IOP (Oryctolagus cuniculus [1]) [mmHg] | Change in IOP (Oryctolagus cuniculus [2]) [mmHg] | Change in IOP (Oryctolagus cuniculus [3]) [mmHg] | Change in IOP (Oryctolagus cuniculus [6]) [mmHg] | other results
0.51 |  |  |  | 0.039 |  | CN(CC(=O)Nc1ccc(S(N)(=O)=O)cc1F)C(=N)N |  |  |  |  | Change in IOP (Oryctolagus cuniculus [11]): 0 mmHg; Change in IOP (Oryctolagus cuniculus [12]): 5 mmHg; Change in IOP (Oryctolagus cuniculus [13]): 3 mmHg; Change in IOP (Oryctolagus cuniculus [14]): 7.2 mmHg
0.078 | 7.8 | 1.785 | 3.9 | 0.03 | 62 (≈ 24.5 mg/mL) | CCNC1CC(C)S(=O)(=O)c2sc(S(=O)(=O)NC(=O)CNC)cc21 (configuration not stated) |  |  |  |  | Change in IOP (Oryctolagus cuniculus [25]): 0 mmHg; Change in IOP (Oryctolagus cuniculus [26]): 3.1 mmHg; Change in IOP (Oryctolagus cuniculus [27]): 7 mmHg; Change in IOP (Oryctolagus cuniculus [28]): 5.5 mmHg
0.021 |  |  |  | 0.01 |  | NCC(=O)NCCC(=O)Nc1nnc(S(N)(=O)=O)s1 |  |  |  |  | Change in IOP (Oryctolagus cuniculus [7]): 5 mmHg; Change in IOP (Oryctolagus cuniculus [8]): 0 mmHg; Change in IOP (Oryctolagus cuniculus [9]): 8.4 mmHg; Change in IOP (Oryctolagus cuniculus [10]): 9.3 mmHg
